Article PMC3765993, “The duration of sleep promoting efficacy by dual orexin receptor antagonists is dependent upon receptor occupancy threshold” (BMC Neuroscience, 2013)
Marks after values point to notes of the source that are not given here.

Experiments:
rats = assay: Rat telemetry polysomnography (time in active wake and sleep stages); format: in vivo; conditions: 100 mg/kg
Method: The mean time spent in sleep stages was determined in radio-telemetry-implanted mice, rats, dogs, and rhesus monkeys as first described by Renger and colleagues and subsequently by Winrow and colleagues with minor modifications. For baseline studies, recordings were taken continuously from unperturbed mice, rats, dogs, and monkeys for 6, 6, 10, or 5 days, respectively, and the mean time spent in all sleep stages in 30-min intervals were averaged and plotted onto a single 24-h period (Figure 1). Almorexant is a DORA [43] that was previously in clinical development for the treatment of insomnia. The clinical development program for almorexant was terminated in early 2011. […] In all cases, mean time in active wake, quiet wake, SWS, and REM sleep was determined for each 30-min interval for 3 days of each condition and averaged onto a single 24-h period. […] Statistical differences in mean time spent in active wake, quiet wake, SWS, and REM sleep between vehicle- and compound-treated groups at 30-min time points were determined by a linear mixed-effects model applied t-test.

[1] = Plasma and CSF compound levels in satellite rats; conditions: rat, in vivo, 100 mg/kg
Method: Separately, the relationship between OX2R occupancy relative to plasma exposure was determined by administering DORA-12 intravenously (i.v.) over a range of doses to transgenic rats expressing human OX2R to determine a full occupancy curve over a wide range of plasma concentrations in order to define the maximal occupancy against which raw occupancy values could be normalized. This relationship was then used to determine the OX2R occupancy in PSG experiments from measured plasma concentrations.
Occupancy of human OX2R in transgenic rats expressing the receptor via the rat enolase promoter was performed ex vivo in radioligand-binding-displacement assays essentially as previously described with minor modifications. To determine the relationship between OX2R occupancy for a given compound over a full range of plasma and CSF concentrations, hOX2R-expressing rats were dosed i.v. with compound. Immediately following 30 min of i.v. administration, animals were anesthetized, sacrificed, and CSF, blood, and brain tissue were harvested and frozen for analysis. Frozen tissue was weighed and thawed coincident with homogenization. The homogenate was pelleted at 21,000 × g for 1 min and the pellet was resuspended. […] Non-specific binding was determined by the addition of 1000-fold excess unlabeled ligand. Experimental (dosed)-specific binding was compared with control (vehicle-dosed) binding ([specific total counts minus specific experimental counts]/specific total counts × 100 = percent occupancy). Raw occupancy values determined in this manner over a range of plasma and CSF values were then used to construct a normalized curve where the theoretical maximum occupancy value was defined as 100% and occupancies relative to plasma or CSF values were fit to a […] (hyperbola) curve (GraphPad Prism, San Diego, CA, USA). […] In separate experiments, plasma, CSF, and brain tissue was collected at time points following dosing to directly measure compound levels and corresponding OX2R occupancies at these times. Resulting occupancy relative to measured plasma levels of compound was fit to a normalized binding curve as described previously.

OX2R [2] = target: T1, OX2R (Rattus norvegicus, UniProt P56719); parameters: method as in earlier work; conditions: ref 29 (Dugovic et al. 2009); cited from earlier work
T1 sequence (P56719 1-460): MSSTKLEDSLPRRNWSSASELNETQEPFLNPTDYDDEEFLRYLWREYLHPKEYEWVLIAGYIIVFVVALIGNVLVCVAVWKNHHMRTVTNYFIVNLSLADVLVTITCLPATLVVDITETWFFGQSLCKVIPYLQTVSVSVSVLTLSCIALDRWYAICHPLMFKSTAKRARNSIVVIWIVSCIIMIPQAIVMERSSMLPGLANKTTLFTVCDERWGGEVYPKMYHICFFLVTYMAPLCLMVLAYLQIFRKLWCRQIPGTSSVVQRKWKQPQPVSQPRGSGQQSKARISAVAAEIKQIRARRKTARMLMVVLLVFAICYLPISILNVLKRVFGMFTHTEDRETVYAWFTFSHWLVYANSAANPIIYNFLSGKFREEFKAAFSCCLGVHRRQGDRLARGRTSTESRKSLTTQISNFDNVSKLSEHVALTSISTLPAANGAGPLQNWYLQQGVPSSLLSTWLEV

Orexin 2 receptor = target: T2, Orexin 2 receptor (Homo sapiens, UniProt O43614); assay: Orexin 2 receptor binding kinetics
T2 sequence (O43614 1-444): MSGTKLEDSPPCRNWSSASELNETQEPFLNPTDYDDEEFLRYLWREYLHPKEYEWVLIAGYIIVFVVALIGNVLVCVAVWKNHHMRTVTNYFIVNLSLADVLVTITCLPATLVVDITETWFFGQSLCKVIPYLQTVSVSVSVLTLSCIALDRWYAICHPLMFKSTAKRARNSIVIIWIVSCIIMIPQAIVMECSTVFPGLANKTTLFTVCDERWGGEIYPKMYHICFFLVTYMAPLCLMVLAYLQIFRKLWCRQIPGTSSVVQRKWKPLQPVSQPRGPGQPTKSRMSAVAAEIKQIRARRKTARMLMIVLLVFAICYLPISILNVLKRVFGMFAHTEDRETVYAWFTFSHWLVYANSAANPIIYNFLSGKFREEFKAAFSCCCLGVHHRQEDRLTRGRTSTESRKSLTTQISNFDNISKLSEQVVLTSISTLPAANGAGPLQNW

OX2R [3] = target: T3, OX2R (Homo sapiens, UniProt O43614); assay: OX2R occupancy, ex vivo radioligand-binding displacement in transgenic rats expressing human OX2R; parameters: from tissue; host or cells: brain homogenate of transgenic rats expressing hOX2R under the rat enolase promoter; species or system transgenic rat; conditions: satellite rats, 100 mg/kg, treatment at onset of inactive phase
T3 sequence (O43614 1-444): T2 sequence (O43614 1-444)
Text: Frozen tissue was weighed and thawed coincident with homogenization.

rhesus monkeys [4] = assay: Rhesus monkey polysomnography (active wake); format: in vivo; conditions: for Active wake late in the inactive phase and next morning (residual sleep effect): 10 mg/kg p.o. 2 h before lights out, 10 mg/kg
Method: Animals were fed on a calorie-controlled diet of laboratory chow supplemented with fruit and vegetables. Water was available ad libitum with the exception of those monkeys trained to perform cognitive tasks, for which access was restricted for up to 4 h prior to and during cognitive testing. Treatment occurred at 14:40 (Zeitgeber time [ZT] 10:10) in a balanced 1-day cross-over design: 1 day of drug or vehicle followed by 6 days of baseline followed by 1 day of vehicle or drug. Cognition tasks were scheduled for next-day evaluation as described below. Sleep/wake architecture was scored according to vigilance state (active wake, quiet wake, delta sleep I, delta sleep II, and REM sleep) at 30-minute intervals and analyzed as previously described. Spectral analysis of continuous EEG was quantified between vehicle and compound after binning continuous frequencies into canonical frequency bands (reported herein: Delta, 0.5 – 4 Hz; Theta, 4.0 – 7 Hz; Gamma, 35.0 – 100.0 Hz). qEEG values are spectral power (uV2) log transformed before analysis and averaged over 30-minute intervals, expressed as means +/− SEM, and compared with vehicle using a mixed-model ANOVA at each time point with random effects for subject and date within subject in the R statistical computing environment (cran.us.r-project.org; the R Foundation for Statistical Computing, Vienna, Austria) using a linear mixed effects model for significance testing.

rhesus monkeys [5] = assay: Monkey Delayed Match to Sample (DMS) task; format: in vivo; conditions: 10 mg/kg p.o., versus vehicle
Text: All cognition testing occurred in the animal’s home cage equipped with a touchscreen. Each DMS trial was initiated with a single ‘sample’ image (150 × 200 pixels: 1.8 inches × 2.3 inches) in one of eight colors presented at the center of a touchscreen. Evaluation began when the monkey touched the sample image, at which point the screen became blank for a retention period. Following the retention period, four choice images (150 × 200 pixels) were presented, one in each corner of the screen. One of the four choice images matched the color of the sample image, whereas the three remaining ‘distractor’ images were drawn from the pool of remaining colors. A reinforcer was provided when the monkey touched the choice image that matched the color of the sample image. […] Test sessions comprised 96 trials or lasted for up to 45 min. […] Response latencies to sample and choice images were also recorded. Values reported reflect the proportion of correct responses collapsed over all retention intervals. Differences from vehicle were examined using repeated measures ANOVA.

rhesus monkeys [6] = assay: Monkey Serial Choice Reaction Time (SCRT) task; format: in vivo; conditions: 10 mg/kg p.o.; for Next-day attention (SCRT, correct responses to shortest cues), 16 h after dosing: versus vehicle, 10 mg/kg
Text: Each SCRT trial was initiated with the appearance of 10 blue square ‘target’ images evenly distributed at 3-inch intervals around the perimeter of a touchscreen presented together with a centrally located circular ‘centering’ image (1.4 inch diameter circle). The task began with the monkey touching the centering image, which then turned gray. The monkey was then required to touch the centering image continuously throughout a variable pre-cue interval of 0.25-7.5 s. On completion of the pre-cue interval, one of the blue target images was cued by turning red for one of four cue durations before turning back to blue. To obtain a reward, the monkey was required to touch the target image that had been ‘cued’ red within a 5 s limited hold period. […] On completion of the trial, an inter-trial interval of 2 s was initiated prior to the next trial. […] If the monkey initiated a trial but removed its hand from the touchscreen prior to the appearance of the cue, the trial was terminated and the screen was blanked during a 2 s inter-trial interval. Sessions were terminated after 20 min. Cue location and duration were pseudo-randomly assigned. Cue duration and the target size were titrated for each subject on the basis of performance during previous baseline sessions to yield a performance of 60–80% correct responses for the trials of the shortest cue duration. The briefest cue duration varied from 0.04–0.1 s and the cues varied in size from 0.2–0.7 inches, although each cue had the same touch-sensitive area of 1.75 inches. Values reported in the current study reflect the proportion of correct responses to targets after cues of the shortest duration only.

rhesus monkeys [7] = conditions: sleep-promoting doses; cited from earlier work
[8] = rhesus monkeys, 10 mg/kg p.o.
rhesus monkeys [9] = system: rhesus monkeys; parameters: method as in PMID 23552372; conditions: 10 mg/kg, active-phase dosing, quantified over 2 h; cited from earlier work
in vivo = conditions: rhesus monkey, po, 10 mg/kg

Compound: CNC(=O)[C@@H](c1ccccc1)N1CCc2cc(OC)c(OC)cc2[C@@H]1CCc1ccc(C(F)(F)F)cc1 [Almorexant]
- Duration of active wake reduction following treatment (rats; dosed during active phase): up to 7.5 h
- Duration of active wake reduction following treatment (rats; inactive-phase treatment): up to 11 h
- Levels within the CSF at 10 h [1]: undetectable
- OX2R occupancy above which significant changes appeared (OX2R [2]): above 89%
- OX2R occupancy at which efficacy was not observed (OX2R [2]): 78%
- KON (association constant) (Orexin 2 receptor): 1.58e+07 mol⁻¹ min⁻¹
- Kd (Orexin 2 receptor): 0.048 nM
- T1/2 OFF (half-life off-rates) (Orexin 2 receptor): 4.47 h
- T1/2 ON (binding half-life) (Orexin 2 receptor; almorexant applied 3-fold above its Kd (value an underestimate)): 162^a min
- koff (Orexin 2 receptor; read-out: KOFF (dissociation constant)): 4.49e-05 s⁻¹
- OX2R occupancy at 10 h (OX2R [3]): remained elevated

Compound: CN1C(=O)CN=C(c2ccccc2)c2cc(Cl)ccc21 [Diazepam]
- Active wake late in the inactive phase and next morning (residual sleep effect) (rhesus monkeys [4]): promoted sleep throughout the normal resting period and into the subsequent active phase
- Active wake late in the inactive phase and next morning (residual sleep effect) (rhesus monkeys [4]; listed as diazepam): significantly attenu-ated active wake
- Next-day recognition memory (DMS), 14 h after dosing (rhesus monkeys [5]): impacted memory and attention
- Next-day recognition memory (DMS), 14 h after dosing (rhesus monkeys [5]; listed as diazepam): Significant deficits
- Next-day attention (SCRT, correct responses to shortest cues), 16 h after dosing (rhesus monkeys [6]): impacted memory and attention
- Next-day attention (SCRT, correct responses to shortest cues), 16 h after dosing (rhesus monkeys [6]; listed as diazepam): significant deficits
- Cognitive assessment in DMS and SCRT tasks within 2 h following treatment (rhesus monkeys [7]): substantial deficits

Compound: CN1CCN(C(=O)O[C@H]2c3nccnc3C(=O)N2c2ccc(Cl)cn2)CC1 [Eszopiclone]
- Time for which reductions in active wake were detectable (rhesus monkeys [4]; 10 mg/kg p.o.): up to 6 h
- Active wake late in the inactive phase and next morning (residual sleep effect) (rhesus monkeys [4]): did not demonstrate next-day sleep effects
- Active wake late in the inactive phase and next morning (residual sleep effect) (rhesus monkeys [4]; listed as eszopiclone): no consistent attenuation of active wake
- Next-day recognition memory (DMS), 14 h after dosing (rhesus monkeys [5]): did not demonstrate next-day sleep effects or memory impairment
- Next-day recognition memory (DMS), 14 h after dosing (rhesus monkeys [5]; listed as eszopiclone): not
- Time for which effects on attention were observed (rhesus monkeys [6]): up to 16 h
- Next-day attention (SCRT, correct responses to shortest cues), 16 h after dosing (rhesus monkeys [6]): significantly impair attention
- Next-day attention (SCRT, correct responses to shortest cues), 16 h after dosing (rhesus monkeys [6]; listed as eszopiclone): significant deficits
- Time of plasma Cmax [8]: 0.5 h
- Attenuation of active wake relative to vehicle (rhesus monkeys [9]): 55.0 min
- Cmax (in vivo): 1680 nM
- concentration at 17 h (in vivo): 535 nM
- Cognitive assessment in DMS and SCRT tasks within 2 h following treatment (rhesus monkeys [7]): substantial deficits
